Experimental data as given in patent US9351915B2, “Ascorbic acid derivative composition and production method of the same, ascorbic acid derivative solution, and skin external preparation” (SHOWA DENKO K.K., priority 2012, dated 2016).

Key:
[1] = Solubility test (time until solid is absent in aqueous medium); assay type: physicochemical; details: 20° C., 500 rpm, visual observation every 5 minutes
Method: Each substance shown in Table 2 was prepared at the ratio (% by mass) indicated in Table 2 so that the total amount was 100 g. First, pure water or a mixture of pure water and methanol serving as a solvent was placed in a beaker having a capacity of 200 mL, and the beaker was immersed in a water bath which was controlled to 20° C. Then, stirring was performed at a rotational speed of 500 rpm with a stirrer chip having a diameter of 2.5 cm, and the ascorbic acid derivative was mixed at the point where the liquid temperature reached 20° C. This time point was set as the zero point and the time (min) until the solid became absent in the mixture was measured. As for the end point, visual observation was carried out every 5 minutes from the start of the stirring, and the time point at which the mixture became clear was determined as the end point.

[2] = Storage stability test (aqueous solution, residual ratio by HPLC); assay type: physicochemical; details: 2% by mass ascorbic acid derivative in purified water, glass bottle with lid, 10 days at 40° C., light shielding; total of 2- and 3-phosphate salts
Excerpt: The sodium salt of L-ascorbic acid-2-phosphoric acid-6-palmitate obtained in Production Example 2 and the sodium salt of L-ascorbic acid-3-phosphoric acid-6-palmitate obtained in Production Example 4 were mixed at a ratio (% by mass) shown in Table 1 to prepare ascorbic acid derivative compositions of Examples 1 to 3.
The mixture obtained in Production Example 6 ((sodium salt of L-ascorbic acid-2-phosphoric acid-6-palmitate): (sodium salt of L-ascorbic acid-3-phosphoric acid-6-palmitate)=97.7:2.3 (mass ratio)) was used as it is as an ascorbic acid derivative composition of Example 4. […]
The concentration of ascorbic acid derivative in each of the solutions obtained before standing (immediately after preparation) and after standing for 10 days was measured, and the “residual ratio” was determined from the results by the following formula.
The concentration of ascorbic acid derivative contained in the solution was measured by the same measuring conditions as in the evaluation of the yield, with a high performance liquid chromatography apparatus using the Shodex SB 802.5 HQ column (manufactured by Showa Denko K.K.). […]

Row | SMILES | Residual ratio (%) [2] [%] | other results
1 | CCCCCCCCCCCCCCCC(=O)OCC(O)C1OC(=O)C(OP(=O)([O-])[O-])=C1[O-].[Na+].[Na+].[Na+] [Comp. Ex. 3, Sodium salt of L-ascorbic acid-2-phosphoric acid-6-palmitate] | – | Time required for dissolution ([1]; 10% by mass ascorbic acid derivative in 90% by mass pure water): 50 min
2 | CCCCCCCCCCCCCCCC(=O)OCC(O)C1OC(=O)C([O-])=C1OP(=O)([O-])[O-].[Na+].[Na+].[Na+] [Comp. Ex. 2, Sodium salt of L-ascorbic acid-3-phosphoric acid-6-palmitate] | 83.9 | –
3 | CCCCCCCCCCCCCCCC(=O)OCC(O)C1OC(=O)C(OP(=O)([O-])[O-])=C1[O-].[Na+].[Na+].[Na+] [Comp. Ex. 4, Sodium salt of L-ascorbic acid-2-phosphoric acid-6-palmitate] | – | Time required for dissolution ([1]; 10% by mass ascorbic acid derivative in 70% by mass pure water + 20% by mass methanol): 65 min
4 | CCCCCCCCCCCCCCCC(=O)OCC(O)C1OC(=O)C(OP(=O)([O-])[O-])=C1[O-].[Na+].[Na+].[Na+] [Comp. Ex. 1, Sodium salt of L-ascorbic acid-2-phosphoric acid-6-palmitate] | 88.6 | –
